The source of these data is US11965039B2, “Compstatin analogues and their medical uses” (priority 2018, dated 2024).

What is called IC50 is the concentration at which inhibition is half-maximal.

Starred links: 1 amine or outer side, 2 acyl side, 3 side chain; linkers in the order of their positions; H or OH if unused. Positions of bridges follow the written chain, without caps; N, C: chain ends. Non-standard residues stand in square brackets, D forms with d. Residues, ends and D or L forms follow the SMILES beside them. Groups on a side chain read outwards from the residue. *: point of attachment. C20 diacid = O=C(O)CCCCCCCCCCCCCCCCCCC(=O)*; Trp(1-Me) = Cn1cc(C[C@H](N)C(=O)O)c2ccccc21; C18 diacid = O=C(O)CCCCCCCCCCCCCCCCC(=O)*; C16 diacid = O=C(O)CCCCCCCCCCCCCCC(=O)*; γGlu = O=C(O)[C@H](CCC(=O)[*:2])N[*:1]; 2Nal = N[C@@H](Cc1ccc2ccccc2c1)C(=O)O; AEEA = NCCOCCOCC(=O)O; Sar = CNCC(=O)O

One assay concerns classical complement pathway. Nature of the assay: In vitro haemolysis assay (inhibition of classical complement pathway). It is filed as cell-based, human. The following applies: human serum, sensitized sheep red blood cells; Table 3, cells printed in μM; read-out: IC50, inhibition of hemolysis. Summed up:
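Compound dilutions preincubated 15 min at room temperature with diluted human serum (titrated per batch for 70-90% maximal haemolysis), then antibody-sensitized sheep RBC (10^7/well) added for 30 min at 37 °C in Tris/casein buffer, pH 7.4. Stopped with EDTA; haemolysis read at 405 nm; IC50 by 4PL fit.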
Turning to `CC[C@H](C)[C@H](N)C(=O)N[C@H]1CSSC[C@@H](C(=O)N[C@H](C(N)=O)[C@@H](C)O)NC(=O)[C@H](CCCN=C(N)N)NC(=O)[C@H](Cc2cnc[nH]2)NC(=O)[C@H](Cc2cnc[nH]2)NC(=O)CNC(=O)[C@H](Cc2c[nH]c3ccccc23)NC(=O)[C@H](CC(=O)O)NC(=O)[C@H](CCC(N)=O)NC(=O)[C@H](C(C)C)NC(=O)[C@H](C(C)C)NC1=O` [Compstatin], the IC50 is above 5 µM.

Staying with this assay, now noted: human serum, sensitized sheep red blood cells; Table 3, given as upper bounds; read-out: IC50, inhibition of hemolysis.
Consider `CC[C@H](C)[C@@H]1NC(=O)[C@@H](NC(=O)[C@H](Cc2ccccc2)NC(=O)[C@H](CCC(=O)O)NC(=O)[C@H](CO)NC(C)=O)CSSC[C@@H](C(=O)N(C)CC(=O)N[C@@H](CCC(=O)O)C(=O)NCC(=O)N[C@@H](CCC(=O)O)C(=O)NCCOCCOCC(=O)NCCOCCOCC(=O)N[C@@H](CCCCNC(=O)CC[C@H](NC(=O)CNC(=O)CC[C@H](NC(=O)CCCCCCCCCCCCCCCCCCC(=O)O)C(=O)O)C(=O)O)C(N)=O)NC(=O)[C@H](CCCNC(=N)N)NC(=O)[C@H](Cc2c[nH]cn2)NC(=O)[C@H](CCC(=O)O)NC(=O)CNC(=O)[C@H](Cc2c[nH]c3ccccc23)NC(=O)[C@H](CC(=O)O)NC(=O)[C@H](CCC(N)=O)NC(=O)[C@H](Cc2cn(C)c3ccccc23)NC1=O` [Compound 128] (Ac-SEFCI[Trp(1-Me)]QDWGEHRC[Sar]EGE[AEEA][AEEA]K([γGlu-Gly-γGlu-C20 diacid])-NH2; disulfide 4-14), for which the IC50 is below 0.1 µM.
`CC[C@H](C)[C@@H]1NC(=O)[C@@H](NC(=O)[C@H](Cc2ccc(O)cc2)NC(=O)[C@H](CCC(=O)O)NC(=O)[C@H](CO)NC(C)=O)CSSC[C@@H](C(=O)N(C)CC(=O)N[C@@H](CCC(=O)O)C(=O)NCC(=O)N[C@@H](CCC(=O)O)C(=O)NCCOCCOCC(=O)NCCOCCOCC(=O)N[C@@H](CCCCNC(=O)CC[C@H](NC(=O)CNC(=O)CC[C@H](NC(=O)CCCCCCCCCCCCCCCCC(=O)O)C(=O)O)C(=O)O)C(N)=O)NC(=O)[C@H](CCCNC(=N)N)NC(=O)[C@H](Cc2c[nH]cn2)NC(=O)[C@H](CCC(=O)O)NC(=O)CNC(=O)[C@H](Cc2c[nH]c3ccccc23)NC(=O)[C@H](CCC(=O)O)NC(=O)[C@H](CCC(N)=O)NC(=O)[C@H](Cc2cn(C)c3ccccc23)NC1=O` [Compound 125] (Ac-SEYCI[Trp(1-Me)]QEWGEHRC[Sar]EGE[AEEA][AEEA]K([γGlu-Gly-γGlu-C18 diacid])-NH2; disulfide 4-14): the IC50 was below 0.5 µM.
The same measure, in the same setting: to `CC[C@H](C)[C@H](NC(=O)[C@H](C)NC(=O)[C@H](CO)NC(=O)CNC(=O)[C@H](CCC(=O)O)NC(C)=O)C(=O)N[C@H]1CSSC[C@@H](C(=O)N[C@H](C(=O)N[C@@H](CCC(=O)O)C(=O)NCC(=O)N[C@@H](CCCCNC(=O)CC[C@H](NC(=O)CCCCCCCCCCCCCCC(=O)O)C(=O)O)C(N)=O)[C@@H](C)O)NC(=O)[C@H](CCCNC(=N)N)NC(=O)[C@H](Cc2c[nH]cn2)NC(=O)[C@H](CCC(=O)O)NC(=O)CNC(=O)[C@H](Cc2c[nH]c3ccccc23)NC(=O)[C@H](CC(=O)O)NC(=O)[C@H](CCC(N)=O)NC(=O)[C@H](Cc2c[nH]c3ccccc23)NC(=O)[C@H]([C@@H](C)CC)NC1=O` [Compound 101] (Ac-EGSAICIWQDWGEHRCTEGK([γGlu-C16 diacid])-NH2; disulfide 6-16) belongs below 0.5 µM; to `CC[C@H](C)[C@@H]1NC(=O)[C@@H](NC(=O)[C@H](Cc2ccccc2)NC(C)=O)CSSC[C@@H](C(=O)N[C@H](C(=O)NCC(=O)N[C@@H](C)C(=O)N[C@@H](CCC(=O)O)C(=O)N[C@@H](CO)C(N)=O)[C@@H](C)O)NC(=O)[C@H](CCCNC(=N)N)NC(=O)[C@H](Cc2c[nH]cn2)NC(=O)[C@H](CCC(=O)O)NC(=O)CNC(=O)[C@H](Cc2c[nH]c3ccccc23)NC(=O)[C@H](CC(=O)O)NC(=O)[C@H](CCC(N)=O)NC(=O)[C@H](Cc2ccc3ccccc3c2)NC1=O` [Compound 64] (Ac-FCI[2Nal]QDWGEHRCTGAES-NH2; disulfide 2-12), below 0.1 µM; to `CC[C@H](C)[C@@H]1NC(=O)[C@@H](NC(=O)[C@H](Cc2ccccc2)NC(=O)[C@H](CCC(=O)O)NC(=O)[C@H](CO)NC(C)=O)CSSC[C@@H](C(=O)N(C)CC(=O)N[C@@H](CCC(=O)O)C(=O)NCC(=O)N[C@@H](CCC(=O)O)C(=O)N[C@@H](CO)C(=O)N[C@@H](CCC(=O)O)C(=O)N[C@@H](CO)C(=O)N[C@@H](CCCCNC(=O)CC[C@H](NC(=O)CCCCCCCCCCCCCCCCC(=O)O)C(=O)O)C(N)=O)NC(=O)[C@H](CCCNC(=N)N)NC(=O)[C@H](Cc2c[nH]cn2)NC(=O)[C@H](CCC(=O)O)NC(=O)CNC(=O)[C@H](Cc2c[nH]c3ccccc23)NC(=O)[C@H](CC(=O)O)NC(=O)[C@H](CCC(N)=O)NC(=O)[C@H](Cc2cn(C)c3ccccc23)NC1=O` [Compound 141] (Ac-SEFCI[Trp(1-Me)]QDWGEHRC[Sar]EGESESK([γGlu-C18 diacid])-NH2; disulfide 4-14), below 0.1 µM.
Same read-out and setting: to `CC[C@H](C)[C@@H]1NC(=O)[C@@H](NC(=O)[C@H](Cc2ccc(O)cc2)NC(C)=O)CSSC[C@@H](C(=O)N[C@H](C(=O)N[C@@H](CCC(=O)O)C(=O)N[C@@H](CO)C(=O)NCC(=O)N[C@@H](C)C(N)=O)[C@@H](C)O)NC(=O)[C@H](CCCNC(=N)N)NC(=O)[C@H](Cc2c[nH]cn2)NC(=O)[C@H](CCC(=O)O)NC(=O)CNC(=O)[C@H](Cc2c[nH]c3ccccc23)NC(=O)[C@H](CC(=O)O)NC(=O)[C@H](CCC(N)=O)NC(=O)[C@H](Cc2cn(C)c3ccccc23)NC1=O` [Compound 69] (Ac-YCI[Trp(1-Me)]QDWGEHRCTESGA-NH2; disulfide 2-12) belongs below 0.1 µM; to `CC[C@H](C)[C@@H]1NC(=O)[C@@H](NC(=O)[C@H](Cc2ccccc2)NC(=O)[C@H](CCC(=O)O)NC(=O)[C@H](CO)NC(C)=O)CSSC[C@@H](C(=O)N(C)CC(=O)N[C@@H](CCC(=O)O)C(=O)N[C@@H](C)C(N)=O)NC(=O)[C@H](CCCNC(=N)N)NC(=O)[C@H](Cc2c[nH]cn2)NC(=O)[C@H](CCC(=O)O)NC(=O)CNC(=O)[C@H](Cc2c[nH]c3ccccc23)NC(=O)[C@H](CC(=O)O)NC(=O)[C@H](CCC(N)=O)NC(=O)[C@H](Cc2cn(C)c3ccccc23)NC1=O` [Compound 75] (Ac-SEFCI[Trp(1-Me)]QDWGEHRC[Sar]EA-NH2; disulfide 4-14), below 0.1 µM; to `CC[C@H](C)[C@H](NC(C)=O)C(=O)N[C@H]1CSSC[C@@H](C(=O)N[C@H](C(N)=O)[C@@H](C)O)NC(=O)[C@H](CCCNC(=N)N)NC(=O)[C@H](Cc2c[nH]cn2)NC(=O)[C@H](CCC(=O)O)NC(=O)CNC(=O)[C@H](Cc2c[nH]c3ccccc23)NC(=O)[C@H](CCCCN)NC(=O)[C@H](CCC(N)=O)NC(=O)[C@H](Cc2c[nH]c3ccccc23)NC(=O)[C@H]([C@@H](C)CC)NC1=O` [Compound 7] (Ac-ICIWQKWGEHRCT-NH2; disulfide 2-12), below 1 µM.
The same measure, in the same setting: to `CC[C@H](C)[C@@H]1NC(=O)[C@@H](NC(=O)[C@H](Cc2ccc(O)cc2)NC(=O)[C@H](C)NC(=O)[C@H](CO)NC(=O)CNC(=O)[C@H](CCC(=O)O)NC(C)=O)CSSC[C@@H](C(=O)N[C@H](C(=O)N[C@@H](CCC(=O)O)C(N)=O)[C@@H](C)O)NC(=O)[C@H](CCCNC(=N)N)NC(=O)[C@H](Cc2c[nH]cn2)NC(=O)[C@H](CCC(=O)O)NC(=O)CNC(=O)[C@H](Cc2c[nH]c3ccccc23)NC(=O)[C@H](CC(=O)O)NC(=O)[C@H](CCC(N)=O)NC(=O)[C@H](Cc2cn(C)c3ccccc23)NC1=O` [Compound 59] (Ac-EGSAYCI[Trp(1-Me)]QDWGEHRCTE-NH2; disulfide 6-16) belongs below 0.1 µM; to `CC[C@H](C)[C@H](NC(=O)[C@H](C)NC(=O)[C@H](CO)NC(=O)[C@H](CO)NC(=O)[C@H](CCC(=O)O)NC(=O)CCCCCCCCCCCCCCC(=O)O)C(=O)N[C@H]1CSSC[C@@H](C(=O)N[C@H](C(=O)N[C@@H](CCC(=O)O)C(=O)NCC(=O)N[C@@H](CCC(=O)O)C(N)=O)[C@@H](C)O)NC(=O)[C@H](CCCNC(=N)N)NC(=O)[C@H](Cc2c[nH]cn2)NC(=O)[C@H](CCC(=O)O)NC(=O)CNC(=O)[C@H](Cc2c[nH]c3ccccc23)NC(=O)[C@H](CC(=O)O)NC(=O)[C@H](CCC(N)=O)NC(=O)[C@H](Cc2c[nH]c3ccccc23)NC(=O)[C@H]([C@@H](C)CC)NC1=O` [Compound 99] ({C16 diacid}-ESSAICIWQDWGEHRCTEGE-NH2; disulfide 6-16), below 0.25 µM; to `CC[C@H](C)[C@@H]1NC(=O)[C@@H](NC(=O)[C@H](Cc2ccccc2)NC(=O)[C@H](CCC(=O)O)NC(C)=O)CSSC[C@@H](C(=O)N[C@@H](CCC(=O)O)C(=O)N[C@@H](CO)C(N)=O)NC(=O)[C@H](CCCNC(=N)N)NC(=O)[C@H](Cc2c[nH]cn2)NC(=O)[C@H](CCC(=O)O)NC(=O)CNC(=O)[C@H](Cc2c[nH]c3ccccc23)NC(=O)[C@H](CC(=O)O)NC(=O)[C@H](CCC(N)=O)NC(=O)[C@H](Cc2cn(C)c3ccccc23)NC1=O` [Compound 85] (Ac-EFCI[Trp(1-Me)]QDWGEHRCES-NH2; disulfide 3-13), below 0.1 µM.

The same assay, now with this note: human serum, sensitized sheep red blood cells; Table 4, valine 3 vs isoleucine 3 pairs; read-out: CP hemolysis IC50.
Consider `CC[C@H](C)[C@H](NC(C)=O)C(=O)N[C@H]1CSSC[C@@H](C(=O)N[C@H](C(=O)N[C@@H](CCC(=O)O)C(=O)NCC(=O)N[C@@H](CCC(=O)O)C(N)=O)[C@@H](C)O)NC(=O)[C@H](CCCNC(=N)N)NC(=O)[C@H](Cc2c[nH]cn2)NC(=O)[C@H](CCC(=O)O)NC(=O)CNC(=O)[C@H](Cc2c[nH]c3ccccc23)NC(=O)[C@H](CC(=O)O)NC(=O)[C@H](CCC(N)=O)NC(=O)[C@H](Cc2c[nH]c3ccccc23)NC(=O)[C@H](C(C)C)NC1=O` [J, reference compound] (Ac-ICVWQDWGEHRCTEGE-NH2; disulfide 2-12), for which the half-maximal inhibitory concentration (IC50) worked out at 0.24 µM.
As to `CC[C@H](C)[C@H](NC(=O)[C@H](C)NC(=O)[C@H](CO)NC(=O)[C@H](CO)NC(=O)[C@H](CCC(=O)O)NC(C)=O)C(=O)N[C@H]1CSSC[C@@H](C(=O)N[C@H](C(N)=O)[C@@H](C)O)NC(=O)[C@H](CCCNC(=N)N)NC(=O)[C@H](Cc2c[nH]cn2)NC(=O)[C@H](CCC(=O)O)NC(=O)CNC(=O)[C@H](Cc2c[nH]c3ccccc23)NC(=O)[C@H](CC(=O)O)NC(=O)[C@H](CCC(N)=O)NC(=O)[C@H](Cc2c[nH]c3ccccc23)NC(=O)[C@H](C(C)C)NC1=O` [C, reference compound] (Ac-ESSAICVWQDWGEHRCT-NH2; disulfide 6-16), the IC50 was determined as 0.3 µM.
